Measurements: PMC11931445, “A Novel Compound QO‐83 Alleviates Acute and Chronic Epileptic Seizures in Rodents by Modulating KV7 Channel Activity” (CNS Neuroscience & Therapeutics, 2025)

Legend:
KV7.3 = KV7.3 (Homo sapiens, UniProt O43525); assay: Manual patch clamp, KV7 currents; format: cell-based
Procedure: Pipettes (1–6 MΩ) were filled with a solution of KCl (145 mM), MgCl2 (1 mM), HEPES (10 mM), and EDTA (5 mM). The pH was adjusted to 7.2 with NaOH. Electrophysiological measurements were obtained using an AXON Multiclamp 700 B patch‐clamp amplifier. The bath solution contained NaCl (144 mM), KCl (5 mM), MgCl2 (1 mM), CaCl2 (2 mM), and D‐glucose (10 mM), with the pH adjusted to 7.4 using NaOH. The protocol involved an increase in voltage from −120 mV to 40 mV in increments of 10 mV to evoke a series of KV7 currents (1000 ms per pulse) in the bath solution. For details on cell culture, please see Appendix S1 2.2.1.
Statistical differences between multiple groups (mean ± SEM) were compared using one‐ or two‐way ANOVA. Electrophysiological data were analyzed using SPSS version 21 and OriginPro (version 9.1.0). P Peak inward currents obtained from activation protocols were calculated using the following equation: G = I/(Vm‐EK), where G is conductance, I is peak inward current, Vm is instantaneous membrane potential, and EK is equilibrium potential for the […] channel. Conductance data were normalized using maximum conductance and further fitted to the Boltzmann equation: G=Gmax+Gmin−Gmax/1+expVm−V1/2/k , where G is conductance, V1/2 is midpoint of activation, and k is slope factor. The “Spectrum” module of LabChart was used for data analysis of EEG signals, including the calculation of power density and averaging power spectral density (PSD).

PNC-induced seizures = assay: Penicillin (PNC) induced acute epilepsy model; format: in vivo, SD rats; settings: 40 mg/kg i.g.
Procedure: In the penicillin (PNC) induced acute epilepsy model study, male SD rats weighing between 180 g and 250 g were utilized. […] Each group consisted of 10 rats.
PNC was administered intraperitoneally at a dose of 8 million U/kg to induce epileptic seizures. […] In the Compound QO‐83 treatment groups, rats were orally administered the designated doses of Compound QO‐83, followed by an intraperitoneal injection of PNC after a 20‐min interval. The PNC model group received an oral gavage of a 0.5% CMC‐Na solution, followed by an intraperitoneal injection of PNC after a 20‐min interval. […] Seizure behaviors, including convulsions, limb jerks, and loss of postural control, were observed and analyzed in all groups.

## CCOC(=O)Nc1ccc(NCc2ccc(F)cc2)cc1N [RTG, retigabine]
KV7.3; 10.00 μM
  activation curve V1/2: -55.64 ± 1.31 mV
KV7.3; 10 μM, Mean ± SE
  Activation τ (10 mV): 246.33 ± 21.28 ms
  Deactivation τ (-120 mV): 153.33 ± 48.97 ms
PNC-induced seizures
  effect on seizure latency: significantly increased seizure latency
  seizure grade: 2.66 ± 0.33
